Melting point data for 42 molecules are collected here from patent US7772271B2 (priority 2004, dated 2010).

For orientation: melting point means the temperature of the solid-liquid transition.

As for `C[C@@H](OC(=O)Nc1ccc(-c2c(C#N)c3ccc(N4CCS4(=O)=O)cc3n2C2CCC2)cc1)C1CC1` [Compound 3318], the melting point is 235 °C (dec.).
On to `CC(C)NC(=O)Nc1ccc(-c2c(C#N)c3cc(Oc4ncccn4)ccc3n2C2CCC2)cc1` [Compound 2851], for which the melting point fell in the range of 140 to 145 °C.
Regarding `CC(C)n1c(-c2ccc(NC(=O)O[C@H](C)c3ccc(F)cc3)cc2)c(C#N)c2ccc(N3CCOCC3)cc21` [Compound 2953], the melting point lay in the range of 231 to 234 °C.
`CC(C)Nc1ncc(-c2c(C#N)c3ccc(Oc4ncccn4)cc3n2C2CCC2)cn1` [Compound 3327] gave a melting point of 213 to 215 °C.
Under `CCCS(=O)(=O)Nc1ccc(-c2c(C#N)c3ccc(Oc4nccnc4C#N)cc3n2C2CCC2)c(C)c1` [Compound 3274] stands 222 to 225 °C; under `N#Cc1c(-c2ccc(NC(=O)OC3CCC3)cc2)n(C2CCC2)c2ccc(OCCn3cncn3)cc12` [Compound 2677], 190 to 192 °C.
To `CC(C)OC(=O)Nc1ccc(-c2c(C#N)c3ccc(OCS(C)(=O)=O)cc3n2C2CCCC2)cc1` [Compound 3067] belongs 265 to 271 °C; to `CCCS(=O)(=O)Nc1ccc(-c2c(C#N)c3ccc(Oc4cnccc4C#N)cc3n2CC2CC2)c(C)c1` [Compound 3303], 138 to 142 °C; to `CCCS(=O)(=O)Nc1ccc(-c2c(C#N)c3ccc(Oc4nccnc4C#N)cc3n2C2CCC2)cc1C` [Compound 3288], 215 to 217 °C.
In the case of `CCn1ccnc1COc1ccc2c(C#N)c(-c3ccc(NC(=O)OC(C)C)cc3)n(C3CCC3)c2c1` [Compound 2881], the melting point is 197 to 203 °C.
`CC(C)OC(=O)Nc1ccc(-c2c(C#N)c3ccc(OCCSc4ncccn4)cc3n2C2CCC2)cc1` [Compound 2698] returned a melting point of 69 to 72 °C.
For `CCOc1ccc2c(C#CC3CC3)c(-c3ccc(NC(=O)OC(C)C)cc3)n(CC3CC3)c2c1` [compound 2635, [4-(3-cyclopropylethynyl-1-cyclopropylmethyl-6-ethoxy-1H-indol-2-yl)-phenyl]-carbamic acid isopropyl ester], the melting point lay within 175 to 180 °C.
With `CCCS(=O)(=O)Nc1ccc(-c2c(C#N)c3ccc(Oc4ncccc4C#N)cc3n2C2CCC2)cc1C` [Compound 3290], the melting point was in the range of 176 to 180 °C.
In turn, `CCOc1ccc2c(C#N)c(-c3ccc(NC(=O)OCc4cccnc4)cc3)n(C3CCC3)c2c1` [Compound 1432] showed a melting point of 187 to 194 °C.
Under `COCCOc1ccc2c(C#N)c(-c3ccc(NC(=O)OC(C)C)cc3)n(C3CCC3)c2c1` [Compound 1399] stands 125 to 126 °C.
The molecule `CS(=O)(=O)CCCOc1ccc2c(C#N)c(-c3ccc(NS(=O)(=O)C4CC4)cc3)n(C3CCC3)c2c1` [Compound 2957] yielded a melting point of 203 to 204 °C.
Under `CCCOC(=O)Nc1ccc(-c2c(C#N)c3ccc(OCCOC)cc3n2CC)cc1` [Compound 1369] stands 154 to 156 °C; under `CCn1c(-c2ccc(N3CCCS3(=O)=O)cc2)c(C#N)c2ccc(Oc3nccnc3C#N)cc21` [Compound 3196], 232 to 236 °C.
For the molecule `CCC1(S(=O)(=O)Nc2ccc(-c3c(C#N)c4ccc(C(=O)N5CCOCC5)cc4n3C3CCC3)cc2)CC1` [Compound 2965], the melting point lay within 212 to 214 °C.
To `CC(NC(=O)Nc1ccc(-c2c(C#N)c3ccc(OC4CCOC4)cc3n2C2CC2)cc1)c1ccc(F)cc1` (stereo not drawn) [Compound 1448] belongs 182 to 184 °C; to `CCOc1ccc2c(C#N)c(-c3ccc(NC(=O)NCCN4CCOCC4)cc3)n(C3CCC3)c2c1` [Compound 1390], 217 to 223 °C.
To `CC(C)OC(=O)Nc1ccc(-c2c(C#N)c3ccc(O[C@@H]4CCOC4)cc3n2C2CCC2)cc1` [Compound 2638] belongs 196 to 197 °C; to `N#Cc1c(-c2ccc(NCc3ccccc3F)cc2)n(C2CCC2)c2cc(OC3CCOCC3)ccc12` [Compound 3120], 180 to 181 °C; to `CCCS(=O)(=O)Nc1ccc(-c2c(C#N)c3ccc(Oc4ncccc4F)cc3n2CC2CC2)c(C)c1` [Compound 3030], 128 to 131 °C.
In turn, `CCCS(=O)(=O)Nc1ccc(-c2c(C#N)c3ccc(-c4cc(C)ccn4)cc3n2C2CCC2)cc1` [Compound 2978] showed a melting point of 210 to 212 °C.
To `COCCOc1ccc2c(C#N)c(-c3ccc(NC(=O)OC(C)c4ccc(F)cc4)cc3)n(C(C)C)c2c1` (stereo not drawn) [Compound 2687] belongs 89 to 112 °C; to `CCOc1ccc2c(C#N)c(-c3ccc(NC(=O)OC4CCN(S(=O)(=O)CC)CC4)cc3)n(C3CCC3)c2c1` [Compound 3070], 237 to 242 °C; to `CCOCCOc1ccc2c(C#N)c(-c3ccc(NC(=O)OC(C)C4CC4)cc3)n(C3CCC3)c2c1` (stereo not drawn) [Compound 2613], 141 to 142 °C.
Under `CCn1c(-c2ccc(N3CCCS3(=O)=O)cc2)c(C#N)c2ccc(OCCOCCOC)cc21` [Compound 1333] stands 160 to 164 °C; under `CCn1c(-c2ccc(NC(=O)OC)cc2)c(C#N)c2ccc(OCCOC)cc21` [Compound 1367], 191 to 194 °C; under `COCCOc1ccc2c(C#N)c(-c3ccc(C(=O)N4CCCC4)cc3)n(C3CCC3)c2c1` [Compound 2756], 162 to 164 °C.
To `COCCOc1ccc2c(C#N)c(-c3ccc(NC(=O)O[C@H](C)C4CC4)cc3)n(C3CC3)c2c1` [Compound 2711] belongs 157 to 159 °C; to `Cc1ccnc(Oc2ccc3c(C#N)c(-c4ccc(NC(=O)O[C@H](C)C5CC5)cc4C)n(C4CCC4)c3c2)n1` [Compound 3057], 95 to 112 °C; to `N#Cc1c(-c2ccc(NS(=O)(=O)C3CC3)cc2)n(CC2CC2)c2cc(N3CCCCC3)ccc12` [Compound 2908], 191 to 194 °C.
Regarding `CCCS(=O)(=O)Nc1ccc(-c2c(C#N)c3ccc(N4CCOCC4)cc3n2C2CCC2)cc1` [Compound 3013], the melting point was in the range of 176 to 179 °C.
For `C[C@@H](OC(=O)Nc1ccc(-c2c(C#N)c3ccc(-n4ccccc4=O)cc3n2C2CCC2)cc1)C1CC1` [Compound 3315], the melting point is 237 to 238 °C.
Molecule `CC1(S(=O)(=O)Nc2ccc(-c3c(C#N)c4ccc(C(=O)N5CCOCC5)cc4n3C3CCC3)cc2)CC1` [Compound 2964] returned a melting point of 248 to 250 °C.
In turn, `C[C@@H](OC(=O)Nc1ccc(-c2c(C#N)c3ccc(N4CCOCC4)cc3n2C2CCC2)cc1)C1CC1` [Compound 2866] displayed a melting point of 194 to 195 °C.
Under `N#Cc1c(-c2cnc(NC3CCCCC3)nc2)n(C2CCC2)c2cc(Oc3ncccn3)ccc12` [Compound 3331] stands 217 to 218 °C.
To `C[C@@H](OC(=O)Nc1ccc(-c2c(C#N)c3ccc(Oc4nccnc4C#N)cc3n2C2CCC2)cc1)C1CC1` [Compound 3191] belongs 227 to 229 °C.
Regarding `CN(C)c1ccc(NC(=O)Oc2ccc(-c3c(C#N)c4ccc(OC5CCOCC5)cc4n3C3CCC3)cc2)cc1` [Compound 3111], the melting point was in the range of 165 to 166 °C.
Molecule `C[C@@H](OC(=O)Nc1ccc(-c2c(C#N)c3ccc(C(=O)N4CCCC4)cc3n2C2CCC2)cc1)C1CC1` [Compound 2788] displayed a melting point of 124 to 127 °C.
